Laboratory results from US4193996A, “Spiro-quinolone hydantoins” (Pfizer Inc., priority 1979, dated 1980).

Key:
aldose reductase = experiment: Inhibition of aldose reductase enzyme activity (partially purified enzyme from calf lens); type: biochemical
Procedure: The compounds of Examples 3 and 4 were tested for their ability to reduce or inhibit aldose reductase enzyme activity, following the procedure described in U.S. Pat. No. 3,821,383 and based on the procedure of Hayman et. al., Journal of Biological Chemistry, 240, 877 (1965). The substrate employed was partially purified aldose reductase enzyme obtained from calf lens.

[1] = test system: sorbitol accumulation in the sciatic nerve; experiment: Inhibition of sorbitol accumulation in the sciatic nerve of streptozotocinized (diabetic) rats; type: in vivo, rat; conditions: oral, at 4, 8 and 24 hours after streptozotocin, measured 27 hours after induction of diabetes
Procedure: The compounds of Examples 3 and 4 were tested for their ability to reduce or inhibit sorbitol accumulation in the sciatic nerve of streptozotocinized (i.e. diabetic) rats by the procedure essentially described in U.S. Pat. No. 3,821,383. In the present study, the amount of sorbitol accumulation in the sciatic nerves was measured 27 hours after induction of diabetes. The compounds were administered orally at the dose levels indicated at 4, 8 and 24 hours following the administration of streptozotocin. The results obtained in this manner are presented below in terms of percent inhibition (%) afforded by the test compound as compared to the case where no compound was administered (i.e. the untreated animal, where sorbitol levels normally rise from approximately […]. tissue in the 27-hour test period): […]

| % Inhibition at 10^-6 m (inhibition of aldose reductase enzyme activity) (aldose reductase) [%] | Structure (SMILES) | % Inhibition at 1.5 mg/kg (sorbitol accumulation in the sciatic nerve vs untreated) [1] [%] |
| --- | --- | --- |
| 94 | O=C1NC(=O)C2(CCn3c(=O)ccc4cc(Cl)cc2c43)N1 (stereo not shown) [Example 4, 10-Chloro-spiro[2,3-dihydro-1H, 5H-benzo[ij]quinolizin[1,4']imidazolidin]-2', 5, 5'-trione] | 32 |
| 86 | O=C1NC(=O)C2(CCn3c(=O)ccc4cccc2c43)N1 (stereo not shown) [Example 3, Spiro[2,3-dihydro-1H, 5H-benzo[ij]quinolizin [1,4']imidazolidin]-2', 5, 4'-trione] | 27 |
